Test systems include SF-295 CNS; IGROV1 ovarian; TK-10 renal; HT29 colon; OVCAR-3 ovarian; NCI-H460 lung; OVCAR-5 ovarian; ACHN renal; NCI-H23 lung; NCI-H226 lung; RXF 393 renal; MDA-MB-231 breast; BT-549 breast.
What all share (experiment): NCI anticancer screen, dose series, 48 h

Values joined by “and” are separate entries in the source; they are usually repeats but may differ in a detail not shown here. Equal values may be shown once.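 Step 1: Grow cells in 96-well plates. Step 2: Expose to compound for 48 hours at 5 concentrations. Step 3: Interpolate endpoints linearly; if unreached, use highest concentration. The concentration for 50% growth inhibition is given as GI50. TGI: total growth inhibition.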

As for `CCC1(N=[N+]=[N-])C(=O)c2ccccc2N(C)C1=O` (configuration not stated), the TGI with SF-295 CNS, with IGROV1 ovarian, with TK-10 renal, in the assay with HT29 colon, with OVCAR-3 ovarian and in the assay on NCI-H460 lung was over 100 µM throughout. The TGI in the assay on OVCAR-5 ovarian, in the assay on ACHN renal and with NCI-H23 lung was over 100 µM throughout.
`CCOC(=O)c1c(N=P(c2ccccc2)(c2ccccc2)c2ccccc2)nnc(-c2ccccc2)c1-c1ccccc1`: the TGI in the assay with NCI-H226 lung, with SF-295 CNS, with RXF 393 renal, with IGROV1 ovarian, with TK-10 renal and in the assay with HT29 colon was over 100 µM in each case. Further, the TGI in the assay on OVCAR-3 ovarian, with NCI-H460 lung, in the assay on OVCAR-5 ovarian, in the assay with ACHN renal, with MDA-MB-231 breast and in the assay on NCI-H23 lung was over 100 µM in each case.
As to `CO/N=C(/C)c1cccc(Nc2nc3ccccc3c3[nH]c4ccccc4c23)c1`, the TGI in the assay on NCI-H226 lung is 33.2 µM; in the assay with SF-295 CNS it was 14.6 µM; in the assay on IGROV1 ovarian, 30.6 µM; with HT29 colon, 11.2 µM; in the assay on OVCAR-3 ovarian it was 20.6 µM; in the assay with NCI-H460 lung, 11.3 µM. The TGI was 22.3 µM in the assay with OVCAR-5 ovarian, 12.8 µM with ACHN renal, 25.5 µM with MDA-MB-231 breast and 23.1 µM in the assay on NCI-H23 lung.
In the case of `Cc1c2c3ccccc3nc-2n(C)c2ccccc12`, the TGI is 8.52 µM with NCI-H226 lung; 24.6 µM with SF-295 CNS; 6.01 µM in the assay on RXF 393 renal; 12.2 µM with IGROV1 ovarian; 9.09 µM in the assay with TK-10 renal; 11.6 µM in the assay with HT29 colon. The TGI amounted to 5.69 µM in the assay on OVCAR-3 ovarian; 2.85 µM with NCI-H460 lung; 8.27 µM with OVCAR-5 ovarian; 19.3 µM with BT-549 breast; 6.23 µM with ACHN renal; 13.9 µM in the assay with NCI-H23 lung.
Regarding `O=CNNC(=O)Nc1cccc2ccccc12`, the TGI in the assay on NCI-H226 lung, in the assay on SF-295 CNS, in the assay on RXF 393 renal, with IGROV1 ovarian, in the assay on TK-10 renal and in the assay on HT29 colon was over 100 µM in each case. Besides, the TGI with NCI-H460 lung, with OVCAR-5 ovarian, in the assay with ACHN renal, in the assay with MDA-MB-231 breast and in the assay with NCI-H23 lung was over 100 µM each time.
`CCOC(=O)c1[nH]c(Br)c(-c2ccc(OC)c(OC)c2)c1Br`: the TGI was 1.65 µM in the assay with NCI-H226 lung; 0.0356 µM in the assay with SF-295 CNS; 0.0424 µM in the assay with RXF 393 renal; 11.9 µM with IGROV1 ovarian; 55.2 µM with TK-10 renal; 0.0667 µM and 0.308 µM with HT29 colon. The TGI in the assay on NCI-H460 lung is over 100 µM; in the assay on OVCAR-5 ovarian, 63.3 µM; with BT-549 breast it was 3.16 µM; in the assay on ACHN renal, 22.6 µM. The GI50 in the assay on IGROV1 ovarian is 0.0494 µM; in the assay with HT29 colon, 0.0258 µM; in the assay with NCI-H460 lung, 19.2 µM; with OVCAR-5 ovarian, 20.3 µM; with ACHN renal it was 0.239 µM; in the assay with NCI-H23 lung, 7.83 µM.
With `O=C(O)CCC(=O)c1ccc2c(c1)C(C(=O)O)CC2` (configuration not stated), the TGI in the assay with NCI-H226 lung was over 100 µM; in the assay with SF-295 CNS, over 100 µM; with RXF 393 renal, 23.1 µM; in the assay on IGROV1 ovarian, over 100 µM; in the assay on TK-10 renal, over 100 µM; in the assay with HT29 colon, over 100 µM. Also, the TGI in the assay on OVCAR-3 ovarian, in the assay with NCI-H460 lung, with OVCAR-5 ovarian, in the assay on ACHN renal, in the assay with MDA-MB-231 breast and in the assay on NCI-H23 lung was over 100 µM in each case.
For the compound `O=C(OC1C2OC(=O)c3cc(O)c(O)c(O)c3Oc3cc4c(c(O)c3O)-c3c(cc(O)c(O)c3O)C(=O)OCC3OC(O)C(OC(=O)c5cc(O)c(O)c(O)c5Oc5cc6c(c(O)c5O)-c5c(cc(O)c(O)c5O)C(=O)OC1C(COC6=O)OC2O)C(OC(=O)c1cc(O)c(O)c(O)c1)C3OC4=O)c1cc(O)c(O)c(O)c1` (configuration not stated), the TGI with NCI-H226 lung was over 100 µM; in the assay on SF-295 CNS, 57.5 µM; with RXF 393 renal it was 52.5 µM; in the assay on IGROV1 ovarian it was over 100 µM; with TK-10 renal it was over 100 µM; with HT29 colon, 51.6 µM. In addition, the TGI with OVCAR-3 ovarian is over 100 µM; with NCI-H460 lung, 14.3 µM; in the assay on OVCAR-5 ovarian, over 100 µM; in the assay with ACHN renal, over 100 µM; in the assay with MDA-MB-231 breast, 68.4 µM; in the assay on NCI-H23 lung it was 62.6 µM.
Consider `O=C1CC2CC3OC3[C@H]3c4cc5c(cc4C(=O)N1C23)OCO5` (some centres not stated), for which the TGI with NCI-H226 lung, in the assay with SF-295 CNS, with IGROV1 ovarian, in the assay with TK-10 renal, in the assay with HT29 colon and in the assay with OVCAR-3 ovarian was over 100 µM in each case. Further, the TGI in the assay with NCI-H460 lung, with OVCAR-5 ovarian and with ACHN renal was over 100 µM in each case.
As to `O=C(N/N=C/c1cc(Cl)cc(Cl)c1[O-])c1ccccc1O.O=C(N/N=C/c1cc(Cl)cc(Cl)c1[O-])c1ccccc1O.[Co+2]`, the TGI in the assay with NCI-H226 lung came to 4.1 µM; with SF-295 CNS, 12.9 µM; in the assay on RXF 393 renal, 8.46 µM; in the assay on IGROV1 ovarian it was 6.97 µM; with TK-10 renal, 12 µM; in the assay with HT29 colon, 17.4 µM. Further, the TGI in the assay with OVCAR-3 ovarian came out at 0.969 µM; in the assay with NCI-H460 lung, 11.1 µM; in the assay on OVCAR-5 ovarian it was 6.27 µM; in the assay on ACHN renal, 10.7 µM; with NCI-H23 lung, 5.47 µM. In addition, the GI50 with NCI-H23 lung is 0.814 µM.
As to `COc1cc(C(C)O)c(S(=O)(=O)CC(C)O)nn1` (configuration not stated), the TGI in the assay with NCI-H226 lung, in the assay with SF-295 CNS, in the assay with RXF 393 renal, with IGROV1 ovarian, in the assay with TK-10 renal and with HT29 colon was over 100 µM throughout. For the same compound, the TGI in the assay on OVCAR-3 ovarian, in the assay with NCI-H460 lung, with OVCAR-5 ovarian, in the assay on BT-549 breast, with ACHN renal and with NCI-H23 lung was over 100 µM in each case.
